Laboratory results published in article PMC10791743, “Selective CK1α degraders exert antiproliferative activity against a broad range of human cancer cell lines” (Nature Communications, 2024).

Key:
MOLM-13 cells = assay: Lenalidomide competition assay (40 μM lenalidomide), MOLM-13 viability; type: cell-based, human; settings: lenalidomide 40 μM
Procedure: Having identified SJ7095 as a compound with a potent antiproliferative effect in MOLM-13 cells, we next examined whether the observed effect was CRBN-dependent. […] In an orthogonal approach, we tested SJ7095 in wild-type and CRBN-knockout MOLM-13 cells in a cell viability assay (Supplementary Fig. 1b).
MOLM-13 cells were plated in Corning 8804BC white 384-well assay plates at the appropriate cell number per well and incubated overnight at 37 °C in a humidified 5 % CO2 incubator. Compounds were transferred to the assay plate from a dose-response plate using a Labcyte Echo 650 Acoustic Liquid Handler (Beckman Coulter , USA). Cytotoxicity was determined following 72 h of incubation using Promega’s CellTiter-Glo reagent according to the manufacturer’s recommendation.
Luminescence was measured on the Envision plate reader (PerkinElmer, USA). Raw luminescence relative light unit (RLU) values for each compound at each concentration were normalized to obtain % activity using the following equation (1): 100 × [(mean(negctrl) – compound)/(mean (negctrl) – mean (posctrl))]. The % activity was converted to % viability using the following equation (2):
(100 – % activity), and then pooled from replicate experiments prior to fitting. Here, negctrl and posctrl refer to the negative (DMSO) and positive controls (staurosporine) on each plate. […]

COLO 205 = assay: cells; parameters: Oncolines panel cell viability, ATPlite 1Step luminescence, duplicate 9-point dose response, IC50; settings: Homo sapiens, COLO 205; 72 h viability; read-out: SJ3149
Kasumi-1 = assay: cells; parameters: Oncolines panel cell viability, ATPlite 1Step luminescence, duplicate 9-point dose response, IC50; settings: Homo sapiens, Kasumi 1; 72 h viability; read-out: SJ3149
Hs 766T = assay: cells; parameters: Oncolines panel cell viability, ATPlite 1Step luminescence, duplicate 9-point dose response, IC50; settings: Hs766T; 72 h viability; read-out: SJ3149
MeWo = assay: cells; parameters: Oncolines panel cell viability, ATPlite 1Step luminescence, duplicate 9-point dose response, IC50; settings: Homo sapiens, MeWo; 72 h viability; read-out: SJ3149

## O=C1CCC(N2Cc3c(CNC(=O)c4ccc(F)cc4)cccc3C2=O)C(=O)N1 (centres unmarked) [SJ7095]
MOLM-13 cells
  Antiproliferative effect in presence of excess lenalidomide: abrogating the antiproliferative effects

## O=C1CCC(N2Cc3cc(Nc4noc5ccccc45)ccc3C2=O)C(=O)N1 (centres unmarked) [SJ3149]
COLO 205
  IC50: > 31.6 µM
Kasumi-1
  IC50: > 31.6 µM
Hs 766T
  IC50: > 31.6 µM
MeWo
  IC50: > 31.6 µM
